Laboratory results reported in patent US12497530B2, “Active energy ray polymerization initiator, active energy ray curing composition, active energy ray curing ink, aqueous active energy ray curing ink, container, image forming device, image forming method, and method of manufacturing active energy ray polymerization initiator” (Ricoh Company, Ltd., priority 2021, dated 2025).

Assay: Absorption spectrum in methylene chloride at 50 ppm
Assay type: physicochemical
Settings: for Absorption of light (absorption spectrum): methylene chloride, 50 ppm, FIGS. 1 to 4
Method: One way of measuring the λmax of an active energy ray polymerization initiator is to dissolve an active energy ray polymerization initiator in methylene chloride at 50 ppm followed by measuring the absorption spectrum of this solution by a spectrophotometer for ultraviolet, visible light, and near infrared, V-680, manufactured by JASCO Corporation.
The absorption spectrum was measured by a spectrophotometer V-680 for UV, visible light, and near IR, manufactured by JASCO Corporation.
The absorption spectra of the active energy ray polymerization initiators Ref-1, Ref-2, and Ref-4 were measured as described above.

CC(C)(O)C(=O)c1ccccc1 [Ref-4, 2-Hydroxy-2-methyl-1-phenylpropane-1-one]
Absorption of light (absorption spectrum): does not absorb light having a wavelength of 350 nm or greater at all

CCCCCCCCCCCCOc1ccc2sc3ccccc3c(=O)c2c1 [Ref-1, 2-dodecyloxy thioxanthone]
Support of LED light source of 365 nm, 385 nm, and 395 nm (judged from absorption spectrum): support an LED light source of 365 nm, 385 nm, and 395 nm | Absorption of light (absorption spectrum): fully absorb light having a wavelength of 400 nm or less
